Test results: US6916823B2, “Method of treatment of dopamine-related dysfunction” (Purdue Research Foundation, priority 2001, dated 2005)
Read-outs that look alike come from different tables or passages of the source.

Key:
D1 receptors = target: T1, D1 receptors (Rattus norvegicus, UniProt P18901); experiment: cAMP production in rat striatum; type: biochemical; conditions: for agonist activity (intrinsic activity): rat striatum / rat striatal membranes, relative to dopamine
T1 construct: increase cAMP production in rat striatum and C-6-mD1 cells; from tissue; host or cells: rat striatum (striatal membranes)

[1] = target: T2, cloned expressed primate D1A receptors (Macaca mulatta, UniProt O77680); experiment: cAMP production in C-6-mD1 cells; type: cell-based; conditions: for agonist activity (intrinsic activity): C-6-mD1 cells / cloned expressed primate D1A receptors, relative to dopamine
T2 construct: expressed in transfected cells; host or cells: C-6 cells (C-6-mD1)

D2 receptors = experiment: D2 agonist properties
unilateral 6-OHDA rats [2] = conditions: cited from earlier work; for efficacy in Parkinson's disease models: e.g. unilateral 6-OHDA-lesion rodent model
[3] = test system: D1 and D2 dopamine receptors; experiment: D1:D2 selectivity; type: binding
[4] = target: T3, rat striatal D1 receptors (Rattus norvegicus, UniProt P18901); experiment: binding affinity to D1 receptors, competition with SCH23390
T3 construct: increase cAMP production in rat striatum and C-6-mD1 cells; from tissue; host or cells: rat striatum (striatal membranes)
Text: Experiments have been conducted to determine the binding affinity of dinoxyline to D1 receptors.

unilateral 6-OHDA rats [5] = experiment: rat unilateral 6-OHDA rotation model of Parkinson's disease; type: in vivo; conditions: for increase in rotation relative to vehicle: 10 h; for rotation during continuous administration: osmotic minipump s.c.
Text: Summary. In the rat unilateral 6-hydroxydopamine (6-OHDA) rotation model of Parkinson's disease, 6-OHDA is infused unilaterally into the medial forebrain bundle, the substantia nigra, or the striatum. […] When challenged with direct-acting dopamine receptor agonists, unilateral 6-OHDA rats turn contralaterally (away from the side of the lesion) because of the increased sensitivity of the postsynaptic dopamine receptors on the lesioned side. The experiments described below examine tolerance induced by the full D1 agonist, dinapsoline, using the 6-OHDA model.
Subjects. Adult male Sprague-Dawley Rats (Hilltop Laboratories, Chatsworth, Calif.), weighing between 280 and 320 grams, were used as subjects. Animals were housed individually with food and water available ad libitum, except as noted below. The light:dark schedule was 12 h:12 h, and testing was performed during the light cycle. All methods adhere to the guidelines in the Guide for the Care and Use of Experimental Animals published by the National Institutes of Health (Pub. 85-23, 1985).
Surgery. Rats were pretreated with 25 mg/kg desipramine (s.c.) approximately 30 minutes before surgery. Rats were anesthetized by inhalation of isoflurane (1.5 to 4.0%) and placed in a stereotaxic apparatus. An infusion cannula was placed in the medial forebrain bundle at the coordinates A.P. −3.8 mm, M.L. −1.5 mm, and D.V. −3.8 mm relative to bregma according to the atlas of Paxinos and Watson (1986). Ten micrograms of 6-OHDA (6-hydroxydopamine; Sigma Chemical Co., St. Louis, Mo.) in a volume of 4 μL was infused at a rate of 0.5 μL/min in a vehicle of 0.01% ascorbate. After a 14-day recovery period, rats were prescreened for rotation in response to d-amphetamine (5 mg/kg) and to apomorphine (0.3 mg/kg) 1 week later. Animals that responded to both d-amphetamine (>800 rotations in 3 h) and apomorphine (>100 rotations in 1 h) were retained for further study.
Testing of compounds began on day 28 postsurgery in each case. A new group of 6-OHDA-lesioned rats was used for each new study. In some studies, rats were implanted with a subcutaneous 14-day osmotic minipump (model 2 ML2, Alza, Palo Alto, Calif.) with a flow rate of 5.0 μL/h. The rats were re-anesthetized with 1.5 to 4% isoflurane, a small incision was made on the back of the neck, and the minipump was placed subcutaneously in the cavity. The incision was closed with sterile wound clips. Before implantation, minipumps were incubated in sterile saline (37° C.) to ensure outflow at the time of implantation. The minipumps were used to administer dinapsoline, or vehicle (50% dimethyl sulfoxide (DMSO), 12.5% ascorbic acid).
Apparatus, Procedure, and Statistics. Rats were tested for rotation in automated rotation chambers (Rotoscan, Accuscan, Columbus, Ohio). The apparatus consisted of a cylindrical Plexiglas chamber 30 cm in diameter in which the animal is fitted to a harness attached to a flexible rod connected to a rotating microswitch. Animals were allowed to habituate to chambers for 30 minutes before drug treatment in each case. Data were collected for 1 to 12 h after injection, using 15 minute time bins. Treatments were compared using one-way and repeated measures of analysis of variance (ANOVA), as appropriate; post hoc analysis was performed with Dunnett's test.
Acute Dinapsoline Administration. Beginning 1 week after the screening dose with apomorphine, subjects (n=12) were tested once per week with dinapsoline (0.02, 0.2, or 2 mg/kg) or vehicle (s.c.) using a counterbalanced design, and rotation behavior was monitored for 10 h. After the final day of testing, rats were euthanized and brains were removed for subsequent assessment of dopamine depletion. In the oral dosing experiments, a separate group of subjects (n=8) received dinapsoline (0.02, 0.2, or 2 mg/kg) or vehicle once per week using a counterbalanced design. Rats were fasted for 16 h before dosing with oral gavage, and rotation behavior was monitored for 10 h.

[6] = in vivo; cited from earlier work
[7] = A-77636 0.3 mg/kg s.c. alone, 3 h

T2 sequence (O77680 whole entry): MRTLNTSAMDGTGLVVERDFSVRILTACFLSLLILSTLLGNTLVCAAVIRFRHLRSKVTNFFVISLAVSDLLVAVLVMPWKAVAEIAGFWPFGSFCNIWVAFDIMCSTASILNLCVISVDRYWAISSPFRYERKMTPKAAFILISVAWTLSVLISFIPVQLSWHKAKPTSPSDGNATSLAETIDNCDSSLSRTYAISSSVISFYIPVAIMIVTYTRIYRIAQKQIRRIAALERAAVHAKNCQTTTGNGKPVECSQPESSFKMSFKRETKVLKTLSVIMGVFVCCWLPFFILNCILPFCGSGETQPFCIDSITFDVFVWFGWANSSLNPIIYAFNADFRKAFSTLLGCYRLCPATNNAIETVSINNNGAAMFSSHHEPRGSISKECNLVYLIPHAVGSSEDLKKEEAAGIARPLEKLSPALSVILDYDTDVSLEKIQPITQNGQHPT
T3 sequence (P18901 whole entry): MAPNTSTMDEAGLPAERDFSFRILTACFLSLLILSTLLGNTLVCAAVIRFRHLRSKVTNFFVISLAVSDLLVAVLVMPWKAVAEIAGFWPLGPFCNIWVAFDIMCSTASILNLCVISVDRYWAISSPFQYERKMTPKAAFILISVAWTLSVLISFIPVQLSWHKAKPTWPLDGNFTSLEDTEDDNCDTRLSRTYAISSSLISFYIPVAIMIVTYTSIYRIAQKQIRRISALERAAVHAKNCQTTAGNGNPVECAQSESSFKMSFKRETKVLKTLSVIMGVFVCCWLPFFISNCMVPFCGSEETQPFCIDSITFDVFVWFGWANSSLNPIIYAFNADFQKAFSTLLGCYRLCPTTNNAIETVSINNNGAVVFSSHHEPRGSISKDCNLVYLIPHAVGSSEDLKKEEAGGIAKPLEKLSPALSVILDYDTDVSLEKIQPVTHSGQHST
T1 sequence (P18901 whole entry): as above

Structure (SMILES): Br.Oc1ccc2c(c1O)Oc1cccc3c1C2CNC3 (racemic) [dinoxyline, (±)-8,9-dihydroxy-1,2,3,11b-tetrahydrochromeno[4,3,2-de]isoquinoline hydrobromide]
- agonist activity (intrinsic activity) (D1 receptors; hydrobromide): full agonist activity
- EC50 (D1 receptors; rat striatum, read-out: EC50 in stimulating synthesis of cAMP via D1 receptors): < 30 nM
- agonist activity (intrinsic activity) ([1]; hydrobromide): full agonist activity
- EC50 ([1]; C-6-mD1 cells, read-out: EC50 in stimulating synthesis of cAMP via D1 receptors): < 30 nM
- D2 agonist properties (D2 receptors): some D2 agonist properties
- efficacy in Parkinson's disease models (unilateral 6-OHDA rats [2]): efficacious
- D1:D2 selectivity [3]: equally high affinity for both types of receptors
- affinity for dopamine D1 receptors labeled with [3H]SCH23390 ([4]; compared with dihydrexidine): high affinity
- nH of competition curve ([4]; competition with SCH23390): ca. 0.7
- Ki ([4]; rat striatal D1 receptors, read-out: K0.5 (affinity)): < 5 nM

Structure (SMILES): Oc1cc2c(cc1O)C(c1ccccc1)CNCC2 (single isomer, unassigned; (+)) [(+)-SKF-38393, reference compound]
- agonist activity (intrinsic activity) [1]: partial agonist

Structure (SMILES): Oc1cc2c(cc1O)[C@H]1c3ccccc3CN[C@@H]1CC2 (stereo in doubt) [dihydrexidine, (+)-trans-10,11-dihydroxy-5,6,6a,7,8,12b-hexahydrobenzo[a]phenanthridine]
- agonist activity (intrinsic activity) (D1 receptors): full agonist
- agonist activity (intrinsic activity) [1]: full agonist
- D2 agonist properties (D2 receptors): some D2 agonist properties
- efficacy in Parkinson's disease models (unilateral 6-OHDA rats [2]): efficacious
- D1:D2 selectivity [3]: ten-fold

Structure (SMILES): NC[C@@H]1O[C@H](C23CC4CC(CC(C4)C2)C3)Cc2c1ccc(O)c2O [Compound A-77636, reference compound]
- duration of action (unilateral 6-OHDA rats [2]; Asin and Wirtshafter, 1993): 18 h
- duration of rotation (unilateral 6-OHDA rats [5]; 1 mg/kg s.c.): approximately 18 h
- behavioral tolerance (unilateral 6-OHDA rats [5]; 1 mg/kg s.c. once daily for 14 days, 3 h rotation): dramatic behavioral tolerance
- rotation on second day of dosing (unilateral 6-OHDA rats [5]; 1 mg/kg s.c. once daily, day 2 vs day 1): significantly less rotation than on the first day
- amount of rotation on fourth day of dosing (unilateral 6-OHDA rats [5]; 1 mg/kg s.c. once daily, day 4, complete tolerance): no greater than that seen with vehicle
- rotation in naive animals (unilateral 6-OHDA rats [5]; 1 mg/kg s.c., first day): robust rotation
- tolerance on day 3 challenge (unilateral 6-OHDA rats [5]; A-77636 0.3 mg/kg s.c. alone after 2 days A-77636 with or without quinpirole): equal tolerance in both groups
- rotational response day 1 (unilateral 6-OHDA rats [5]; [7]): maximal rotational response
- tolerance by day 2 (unilateral 6-OHDA rats [5]; [7]): significant tolerance
- D1:D2 selectivity [3]: more strongly D1 selective than dinapsoline
- plasma half-life [6]: > 6 h

Structure (SMILES): CN1CCc2cc(Cl)c(O)cc2[C@@H](c2ccccc2)C1 [SCH-23390, reference compound]
- duration of action (unilateral 6-OHDA rats [5]; in our assay): approximately 3 h

Structure (SMILES): Oc1ccc2c(c1O)Cc1cccc3c1[C@H]2CNC3 [dinapsoline]
- D2 agonist properties (D2 receptors): some D2 agonist properties
- efficacy in Parkinson's disease models (unilateral 6-OHDA rats [2]): efficacious
- increase in rotation relative to vehicle (unilateral 6-OHDA rats [5]; 0.02 mg/kg s.c.): but not at 0.02 mg/kg
- duration of rotation (unilateral 6-OHDA rats [5]; 0.2 mg/kg s.c.): about 5 h
- increase in rotation relative to vehicle (unilateral 6-OHDA rats [5]; 0.2 mg/kg s.c.): Statistically significant increases
- duration of rotation (unilateral 6-OHDA rats [5]; 2 mg/kg oral): 7 h
- increase in rotation versus baseline (unilateral 6-OHDA rats [5]; 2 mg/kg oral): significantly different from baseline
- change in rotational response over time (unilateral 6-OHDA rats [5]; 2 mg/kg s.c. once daily, 14 days): significant increase in response over time
- behavioral tolerance (unilateral 6-OHDA rats [5]; 2 mg/kg s.c. once or twice daily, 14 days): no evidence for behavioral tolerance
- change in rotational response over time (unilateral 6-OHDA rats [5]; 2 mg/kg s.c. twice daily, 14 days): significant increase in response over time
- increase in rotation relative to vehicle (unilateral 6-OHDA rats [5]; 2.0 mg/kg s.c.): Statistically significant increases
- rotational behavior (cumulative rotation over 10 h) (unilateral 6-OHDA rats [5]; acute 0.02, 0.2, 2 mg/kg s.c.): robust, dose-dependent rotational behavior
- rotation (cumulative over 10 h) (unilateral 6-OHDA rats [5]; acute oral 0.02, 0.2, 2 mg/kg, response not dose-dependent): robust rotation
- rotation after challenge dose 0.2 mg/kg s.c. on day 14 (unilateral 6-OHDA rats [5]; after 0.6 mg/kg/day by minipump): no rotation
- rotation after challenge dose 0.2 mg/kg s.c. on day 14 (unilateral 6-OHDA rats [5]; after 6 mg/kg/day by minipump): no rotation
- difference between groups on dinapsoline-alone challenge (unilateral 6-OHDA rats [5]; day 7, after 6 days dinapsoline with or without raclopride): no difference was observed
- rotation during continuous administration (unilateral 6-OHDA rats [5]; highest dose (6 mg/kg/day)): brief behavioral response to which complete tolerance developed by 24 h
- rotation during continuous administration (unilateral 6-OHDA rats [5]; lower doses (0.006, 0.06, 0.6 mg/kg/day)): no evidence of rotation
- D1:D2 selectivity [3]: five-fold

Structure (SMILES): CCN1CCC[C@H]1CNC(=O)c1c(O)c(Cl)cc(Cl)c1OC [raclopride, reference compound]
- effect of daily coadministration on rotational response to dinapsoline (unilateral 6-OHDA rats [5]; raclopride 2 mg/kg s.c. with dinapsoline 2 mg/kg s.c., days 1 through 6): no significant difference
- effect of antagonist pretreatment on rotational response to dinapsoline (unilateral 6-OHDA rats [5]; raclopride 2 mg/kg s.c., dinapsoline 0.2 mg/kg s.c., 3 h): did not reduce
- effect of antagonist pretreatment on rotational response to dinapsoline (unilateral 6-OHDA rats [5]; raclopride 2 mg/kg s.c., dinapsoline 2 mg/kg s.c., 3 h): did not reduce
- effect on rotation produced by quinpirole (unilateral 6-OHDA rats [5]; raclopride 2 mg/kg s.c., quinpirole 0.25 mg/kg s.c., data not shown): blocked completely
